The source of these data is ChEMBL document CHEMBL5465560, “Selectivity Literature for EUbOPEN Chemogenomic Library” (2024).

Experiment [1] concerns the target Ephrin type-A receptor 2 (Homo sapiens) (UniProt P29317). The settings on record: at 10 µM.
The target in experiment [2] is T1, Serine/threonine-protein kinase Nek1 (Homo sapiens) (UniProt Q96PY6).
T1 sequence (whole entry): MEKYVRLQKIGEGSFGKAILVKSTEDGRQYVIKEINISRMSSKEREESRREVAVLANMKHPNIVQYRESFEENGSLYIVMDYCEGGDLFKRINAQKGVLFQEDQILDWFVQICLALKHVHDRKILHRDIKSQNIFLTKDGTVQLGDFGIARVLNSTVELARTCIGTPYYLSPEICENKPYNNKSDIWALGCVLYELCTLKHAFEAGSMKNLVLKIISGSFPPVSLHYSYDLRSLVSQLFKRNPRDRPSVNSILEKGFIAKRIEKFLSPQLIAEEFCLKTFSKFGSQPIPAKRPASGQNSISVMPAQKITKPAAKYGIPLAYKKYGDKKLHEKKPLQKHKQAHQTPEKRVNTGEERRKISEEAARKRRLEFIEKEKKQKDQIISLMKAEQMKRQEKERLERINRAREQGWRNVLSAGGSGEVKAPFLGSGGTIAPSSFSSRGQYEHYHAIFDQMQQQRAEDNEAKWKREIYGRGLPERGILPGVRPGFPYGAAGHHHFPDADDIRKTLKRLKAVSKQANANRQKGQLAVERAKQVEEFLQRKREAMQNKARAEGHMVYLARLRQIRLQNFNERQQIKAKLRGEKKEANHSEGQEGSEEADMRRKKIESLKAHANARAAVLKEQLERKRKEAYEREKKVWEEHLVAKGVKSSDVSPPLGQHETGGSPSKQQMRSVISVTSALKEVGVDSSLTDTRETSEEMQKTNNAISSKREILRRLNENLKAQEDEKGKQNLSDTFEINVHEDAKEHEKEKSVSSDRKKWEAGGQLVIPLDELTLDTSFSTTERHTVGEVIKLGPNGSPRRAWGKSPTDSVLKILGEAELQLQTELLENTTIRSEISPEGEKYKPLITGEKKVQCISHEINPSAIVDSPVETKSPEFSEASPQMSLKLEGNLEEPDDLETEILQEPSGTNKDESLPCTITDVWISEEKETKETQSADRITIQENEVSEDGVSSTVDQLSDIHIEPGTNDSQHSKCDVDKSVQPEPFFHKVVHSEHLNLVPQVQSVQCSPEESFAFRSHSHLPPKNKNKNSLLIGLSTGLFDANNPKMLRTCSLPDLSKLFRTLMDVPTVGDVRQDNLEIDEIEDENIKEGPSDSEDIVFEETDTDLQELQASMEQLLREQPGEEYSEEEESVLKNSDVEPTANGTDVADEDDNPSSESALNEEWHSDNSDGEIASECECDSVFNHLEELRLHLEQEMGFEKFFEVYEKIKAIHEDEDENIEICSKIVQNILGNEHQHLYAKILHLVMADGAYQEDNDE
As to the kind of experiment: Selectivity interaction (Ambit KINOMEscan and KiNATiv profiling in Jurkat cells) EUB0000090b NEK1. Type of experiment: cell-based. The settings on record: at 1 µM.

Experiment [3] deals with T2, Serine/threonine-protein kinase LATS2 (Homo sapiens) (UniProt Q9NRM7).
T2 sequence (whole entry): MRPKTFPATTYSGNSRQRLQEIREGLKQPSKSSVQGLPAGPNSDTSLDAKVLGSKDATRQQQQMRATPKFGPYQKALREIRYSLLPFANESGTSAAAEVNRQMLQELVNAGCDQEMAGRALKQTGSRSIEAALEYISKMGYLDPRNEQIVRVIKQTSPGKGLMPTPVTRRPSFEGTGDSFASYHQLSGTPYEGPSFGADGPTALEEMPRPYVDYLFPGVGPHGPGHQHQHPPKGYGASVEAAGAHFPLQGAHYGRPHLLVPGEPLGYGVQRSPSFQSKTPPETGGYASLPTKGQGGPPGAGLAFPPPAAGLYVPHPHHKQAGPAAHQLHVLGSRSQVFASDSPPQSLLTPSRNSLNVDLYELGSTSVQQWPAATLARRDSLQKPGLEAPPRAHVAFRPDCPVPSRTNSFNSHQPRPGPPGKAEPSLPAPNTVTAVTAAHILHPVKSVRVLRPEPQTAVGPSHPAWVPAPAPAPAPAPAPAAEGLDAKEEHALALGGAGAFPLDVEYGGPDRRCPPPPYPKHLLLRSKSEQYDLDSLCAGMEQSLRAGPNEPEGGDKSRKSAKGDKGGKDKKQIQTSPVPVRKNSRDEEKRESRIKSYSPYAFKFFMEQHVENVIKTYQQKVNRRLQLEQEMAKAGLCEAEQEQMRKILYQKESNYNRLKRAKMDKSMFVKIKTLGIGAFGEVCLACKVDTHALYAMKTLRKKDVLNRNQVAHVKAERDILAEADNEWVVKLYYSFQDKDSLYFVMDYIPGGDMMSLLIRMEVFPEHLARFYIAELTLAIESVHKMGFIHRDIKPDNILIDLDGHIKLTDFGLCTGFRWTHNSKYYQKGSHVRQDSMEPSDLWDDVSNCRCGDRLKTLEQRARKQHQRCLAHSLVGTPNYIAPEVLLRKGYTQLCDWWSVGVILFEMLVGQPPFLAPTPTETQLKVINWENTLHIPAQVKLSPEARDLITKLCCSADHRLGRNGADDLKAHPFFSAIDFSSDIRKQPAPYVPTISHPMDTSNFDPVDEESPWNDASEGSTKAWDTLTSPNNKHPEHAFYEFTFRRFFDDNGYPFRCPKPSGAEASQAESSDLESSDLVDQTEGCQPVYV
As to the kind of experiment: Selectivity interaction (KinomeScan (DiscoverX)) EUB0001049a LATS2. The settings on record: at 1 µM.

For experiment [4], the target named is Protein-tyrosine kinase 6 (Homo sapiens, UniProt Q13882). Nature of the experiment: Selectivity interaction (KinomeScan (DiscoverX)) EUB0001079a PTK6. The note with it: at 1 µM.
Protein-tyrosine kinase 6, sequence (Q13882 whole entry, looked up): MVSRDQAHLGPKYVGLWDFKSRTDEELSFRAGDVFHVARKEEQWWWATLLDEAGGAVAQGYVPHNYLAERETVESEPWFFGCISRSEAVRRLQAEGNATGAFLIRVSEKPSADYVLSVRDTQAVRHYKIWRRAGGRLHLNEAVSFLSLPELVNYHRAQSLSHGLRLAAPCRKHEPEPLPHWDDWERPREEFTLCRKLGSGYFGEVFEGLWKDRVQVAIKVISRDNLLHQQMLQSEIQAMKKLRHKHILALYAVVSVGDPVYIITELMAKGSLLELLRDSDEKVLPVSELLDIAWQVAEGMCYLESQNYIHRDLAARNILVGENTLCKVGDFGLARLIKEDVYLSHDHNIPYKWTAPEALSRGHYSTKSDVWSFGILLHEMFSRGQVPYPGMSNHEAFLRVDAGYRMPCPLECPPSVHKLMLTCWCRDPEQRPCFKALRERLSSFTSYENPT

Ephrin type-A receptor 2 (Homo sapiens), sequence (P29317 whole entry): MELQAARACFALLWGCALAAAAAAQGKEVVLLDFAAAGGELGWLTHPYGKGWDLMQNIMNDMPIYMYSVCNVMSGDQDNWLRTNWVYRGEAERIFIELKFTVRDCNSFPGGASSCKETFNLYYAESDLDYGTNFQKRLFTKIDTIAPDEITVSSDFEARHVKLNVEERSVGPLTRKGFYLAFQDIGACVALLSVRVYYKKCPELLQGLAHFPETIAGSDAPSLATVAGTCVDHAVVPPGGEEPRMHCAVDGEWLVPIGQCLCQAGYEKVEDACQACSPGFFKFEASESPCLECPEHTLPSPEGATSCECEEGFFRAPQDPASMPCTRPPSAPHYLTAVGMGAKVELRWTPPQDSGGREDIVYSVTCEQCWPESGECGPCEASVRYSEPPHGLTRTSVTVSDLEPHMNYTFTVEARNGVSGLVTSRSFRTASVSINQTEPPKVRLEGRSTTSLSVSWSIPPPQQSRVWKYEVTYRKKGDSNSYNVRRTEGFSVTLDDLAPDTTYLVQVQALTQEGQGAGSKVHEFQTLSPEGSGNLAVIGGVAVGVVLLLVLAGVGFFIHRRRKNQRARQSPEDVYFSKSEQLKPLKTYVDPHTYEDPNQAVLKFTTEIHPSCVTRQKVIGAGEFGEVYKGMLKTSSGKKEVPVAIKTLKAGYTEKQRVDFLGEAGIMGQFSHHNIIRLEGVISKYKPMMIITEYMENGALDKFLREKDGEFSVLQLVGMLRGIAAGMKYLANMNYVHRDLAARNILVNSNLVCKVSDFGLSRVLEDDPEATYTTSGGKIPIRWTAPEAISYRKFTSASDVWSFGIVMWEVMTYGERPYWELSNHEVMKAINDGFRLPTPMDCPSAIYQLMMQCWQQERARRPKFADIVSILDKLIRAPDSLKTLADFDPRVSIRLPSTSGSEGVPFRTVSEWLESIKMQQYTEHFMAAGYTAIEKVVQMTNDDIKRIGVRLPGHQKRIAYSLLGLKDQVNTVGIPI

In experiment [1], `CCN(CC)CCCCNc1ncc2cc(-c3cc(OC)cc(OC)c3)c(NC(=O)NC(C)(C)C)nc2n1` came in with a % of control of 100%.

As to `CN(C)C/C=C/C(=O)Nc1ccc(C(=O)N2CCCC(Nc3ncc(Cl)c(-c4c[nH]c5ccccc45)n3)C2)cc1` (centres undefined), the % of control in experiment [2] stood at 100%.

In experiment [3], `COc1cc(Nc2nc(C)cc(-c3cnn4nc(OC)ccc34)n2)cc(C(F)(F)F)c1` displayed a % of control of 71%.

In experiment [4], `Nc1cnc(N2CCc3cc(S(=O)(=O)Nc4c(F)cc(Cl)cc4F)cc(N4CCCC4=O)c32)nc1` [TP-020n] had a % of control of 100%.
